Results as given in patent publication US20170050957A1, “4-AMINO-6-(HETEROCYCLIC)PICOLINATES AND 6-AMINO-2-(HETEROCYCLIC)PYRIMIDINE-4-CARBOXYLATES AND THEIR USE AS HERBICIDES” (Dow AgroSciences LLC, priority 2013, published 2017).
Read-outs that look alike come from different tables or passages of the source.

Tests used:
[1] = system: Key Grass and Sedge Weeds as well as Grass Crops; assay: Post-emergent Test II herbicidal activity (Table 16); type: in vivo; settings: post-emergence, 336 h, 14 days after application; for pest or weed control at 35 g/ha: 35 g ai/ha; for pest or weed control at 70 g/ha: 70 g ai/ha; for pest or weed control at 140 g/ha: 140 g ai/ha
Procedure, shortened: (§1)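 Post-emergence spray; seedlings 7-21 d old, 1st-2nd true leaf; 187 L/ha; serial rates 1×-1/16×; solvent blank controls; subirrigated; visual % injury at 14 d.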

[2] = system: Key Broadleaf Weed and Crop Species; assay: Post-emergent Test II herbicidal activity (Table 15); type: in vivo; settings: post-emergence, 336 h, 14 d; for pest or weed control at 35 g/ha: 35 g ai/ha; for pest or weed control at 70 g/ha: 70 g ai/ha; for pest or weed control at 140 g/ha: 140 g ai/ha
Procedure, shortened: as §1

[3] = Cyperus esculentus, yellow nutsedge (Cyperus esculentus), read-out: Visual Growth Reduction (%) 14 Days After Application CYPES
[4] = Echinochloa crus-galli, barnyardgrass (Echinochloa crus-galli), read-out: Visual Growth Reduction (%) 14 Days After Application ECHCG
[5] = Oryza sativa, rice (Oryza sativa), read-out: Visual Growth Reduction (%) 14 Days After Application ORYSA
[6] = Setaria faberi, giant foxtail (Setaria faberi), read-out: Visual Growth Reduction (%) 14 Days After Application SETFA
[7] = Triticum aestivum, wheat, spring (Triticum aestivum), read-out: Visual Growth Reduction (%) 14 Days After Application TRZAS
[8] = Zea mays, maize, corn (Zea mays), read-out: Visual Growth Reduction (%) 14 Days After Application ZEAMX
[9] = Abutilon theophrasti, velvetleaf (Abutilon theophrasti), read-out: Visual Growth Reduction (%) 14 Days After Application, ABUTH
[10] = Amaranthus retroflexus, redroot pigweed (Amaranthus retroflexus), read-out: Visual Growth Reduction (%) 14 Days After Application, AMARE
[11] = Brassica napus, oilseed rape, canola (Brassica napus), read-out: Visual Growth Reduction (%) 14 Days After Application, BRSNN
[12] = Chenopodium album, lambsquarters (Chenopodium album), read-out: Visual Growth Reduction (%) 14 Days After Application, CHEAL
[13] = Euphorbia heterophylla, wild poinsettia (Euphorbia heterophylla), read-out: Visual Growth Reduction (%) 14 Days After Application, EPHHL
[14] = Helianthus annuus, sunflower (Helianthus annuus), read-out: Visual Growth Reduction (%) 14 Days After Application, HELAN

| melting point [°C] | Compound | pest or weed control at 35 g/ha [1, 3] [%] | pest or weed control at 70 g/ha [1, 3] [%] | pest or weed control at 140 g/ha [1, 3] [%] | pest or weed control at 35 g/ha [1, 4] [%] | pest or weed control at 70 g/ha [1, 4] [%] | pest or weed control at 140 g/ha [1, 4] [%] | pest or weed control at 35 g/ha [1, 5] [%] | pest or weed control at 70 g/ha [1, 5] [%] | pest or weed control at 140 g/ha [1, 5] [%] | pest or weed control at 35 g/ha [1, 7] [%] | pest or weed control at 70 g/ha [1, 7] [%] | pest or weed control at 140 g/ha [1, 7] [%] | pest or weed control at 35 g/ha [1, 8] [%] | pest or weed control at 70 g/ha [1, 8] [%] | pest or weed control at 140 g/ha [1, 8] [%] | pest or weed control at 35 g/ha [2, 9] [%] | pest or weed control at 70 g/ha [2, 9] [%] | pest or weed control at 140 g/ha [2, 9] [%] | pest or weed control at 35 g/ha [2, 10] [%] | further results |
| --- | --- | --- | --- | --- | --- | --- | --- | --- | --- | --- | --- | --- | --- | --- | --- | --- | --- | --- | --- | --- | --- |
| > 300 | Nc1c(F)c(-c2ccc3cn[nH]c3c2)nc(C(=O)O)c1Cl [Compound 4.06] | 0 to 29 | 0 to 29 | 0 to 29 | 0 to 29 | 45 to 59 | 75 to 84 | 0 to 29 | 0 to 29 | 0 to 29 | 0 to 29 | 0 to 29 | 0 to 29 | 0 to 29 | 0 to 29 | 0 to 29 | 0 to 29 | 0 to 29 | 0 to 29 | 75 to 84 | pest or weed control at 35 g/ha [1, 6]: 0 to 29%; pest or weed control at 70 g/ha [1, 6]: 0 to 29%; pest or weed control at 140 g/ha [1, 6]: 45 to 59%; pest or weed control at 70 g/ha [2, 10]: 95 to 100%; pest or weed control at 140 g/ha [2, 10]: 95 to 100%; pest or weed control at 35 g/ha [2, 11]: 60 to 74%; pest or weed control at 70 g/ha [2, 11]: 75 to 84%; pest or weed control at 140 g/ha [2, 11]: 85 to 94%; pest or weed control at 35 g/ha [2, 12]: 0 to 29%; pest or weed control at 70 g/ha [2, 12]: 45 to 59%; pest or weed control at 140 g/ha [2, 12]: 95 to 100%; pest or weed control at 35 g/ha [2, 13]: 45 to 59%; pest or weed control at 70 g/ha [2, 13]: 60 to 74%; pest or weed control at 140 g/ha [2, 13]: 85 to 94%; pest or weed control at 35 g/ha [2, 14]: 45 to 59%; pest or weed control at 70 g/ha [2, 14]: 60 to 74%; pest or weed control at 140 g/ha [2, 14]: 75 to 84% |
| 191 to 193 | COC(=O)c1nc(-c2ccc3cn[nH]c3c2)cc(N)c1Cl [Compound 4.09] | 0 to 29 | 0 to 29 | 0 to 29 | 0 to 29 | 0 to 29 | 0 to 29 | 0 to 29 | 0 to 29 | 0 to 29 | 0 to 29 | 0 to 29 | 0 to 29 | 0 to 29 | 0 to 29 | 0 to 29 | 0 to 29 | 0 to 29 | 0 to 29 | 0 to 29 | pest or weed control at 35 g/ha [1, 6]: 0 to 29%; pest or weed control at 70 g/ha [1, 6]: 0 to 29%; pest or weed control at 140 g/ha [1, 6]: 0 to 29%; pest or weed control at 70 g/ha [2, 10]: 45 to 59%; pest or weed control at 140 g/ha [2, 10]: 85 to 94%; pest or weed control at 35 g/ha [2, 11]: 0 to 29%; pest or weed control at 70 g/ha [2, 11]: 0 to 29%; pest or weed control at 140 g/ha [2, 11]: 60 to 74%; pest or weed control at 35 g/ha [2, 12]: 45 to 59%; pest or weed control at 70 g/ha [2, 12]: 75 to 84%; pest or weed control at 140 g/ha [2, 12]: 85 to 94%; pest or weed control at 35 g/ha [2, 13]: 0 to 29%; pest or weed control at 70 g/ha [2, 13]: 0 to 29%; pest or weed control at 140 g/ha [2, 13]: 0 to 29%; pest or weed control at 35 g/ha [2, 14]: 0 to 29%; pest or weed control at 70 g/ha [2, 14]: 30 to 44%; pest or weed control at 140 g/ha [2, 14]: 45 to 59% |
| 218 to 220 | COC(=O)c1nc(-c2ccc3ncn(C)c3c2)c(F)c(N)c1Cl [Compound 7.02] | 0 to 29 | 0 to 29 | 0 to 29 | 0 to 29 | 0 to 29 | 0 to 29 | 0 to 29 | 0 to 29 | 0 to 29 | 0 to 29 | 0 to 29 | 0 to 29 | 0 to 29 | 0 to 29 | 0 to 29 | 0 to 29 | 0 to 29 | 0 to 29 | 0 to 29 | pest or weed control at 70 g/ha [2, 10]: 0 to 29%; pest or weed control at 140 g/ha [2, 10]: 0 to 29%; pest or weed control at 35 g/ha [2, 11]: 0 to 29%; pest or weed control at 70 g/ha [2, 11]: 0 to 29%; pest or weed control at 140 g/ha [2, 11]: 0 to 29%; pest or weed control at 35 g/ha [2, 12]: 0 to 29%; pest or weed control at 70 g/ha [2, 12]: 75 to 84%; pest or weed control at 140 g/ha [2, 12]: 95 to 100%; pest or weed control at 35 g/ha [2, 13]: 0 to 29%; pest or weed control at 70 g/ha [2, 13]: 0 to 29%; pest or weed control at 140 g/ha [2, 13]: 0 to 29%; pest or weed control at 35 g/ha [2, 14]: 0 to 29%; pest or weed control at 70 g/ha [2, 14]: 0 to 29%; pest or weed control at 140 g/ha [2, 14]: 0 to 29% |
